The target in the experiment is T1, TPP domain of DUSP10 (Homo sapiens, UniProt Q9Y6W6).
T1 sequence (Q9Y6W6 321-464 limits assumed): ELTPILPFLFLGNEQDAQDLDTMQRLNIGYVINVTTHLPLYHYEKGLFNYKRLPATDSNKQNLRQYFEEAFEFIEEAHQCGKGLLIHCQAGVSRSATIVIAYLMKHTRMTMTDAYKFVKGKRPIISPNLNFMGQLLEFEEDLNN
Nature of the experiment: SPR (Surface Plasmon Resonance) assay, Reichert SR7500DC. Format: binding. The procedure:
SPR (Surface Plasmon Resonance) assay was performed using Reichert SR7500DC system to confirm the presence or absence of interaction between the compounds above and the TPP domain of DUSP10.

[1] abbreviates: Table 1, running buffer 1xPBS, 2% DMSO.
[2] abbreviates: Table 1, running buffer 1xPBS, pH 7.4.

In general, Kd refers to the concentration at which binding is half-saturated. A higher Kd goes with lower affinity.

Regarding `O=S(=O)(O)CCN1CCOCC1` [MES], under “SPR”, the “interaction with the TPP domain (in words)” value is reported as “weak interaction”. Under setting [1], the “Ka (association rate)” value is listed as 2.90(4) M−^1-s−^1, binding was put at a Kd of 12.3 mM and the “Kd (dissociation rate)” value is listed as 0.0357(6) s−^1. Under setting [2], the “Ka (association rate)” value is listed as 3.50(5) M−^1-s−^1, the Kd worked out at 17.9 mM and the “Kd (dissociation rate)” value is listed as 0.0627(9) s−^1. In addition, the affinity (Table 2, 0-200 mM analyte), expressed as Kd, was 63 mM. For the same compound, the Ka (Table 2, higher analyte concentrations (MES up to 200 mM, STT up to 10 mM)) is given as 0.152(7) M−^1-s−^1. For the setting “Table 2, second column headed Ka, higher analyte concentrations”, the “dissociation rate constant (kd)” value is 0.0096(2) s−^1.

Values taken from patent US11529334B2, “Pharmaceutical composition for treating or preventing Parkinson's disease comprising STT as an active ingredient” (GACHON UNIVERSITY OF INDUSTRY—ACADEMIC COOPERATION …, priority 2019, dated 2022).
